Source: PubChem BioAssay AID256 (DTP/NCI, 2004)
Toxic doses and inconclusive results are not listed. How the source made its calls: active means survival T/C of 150% or more; inactive means T/C below 125% in these data.

Test system: CD2F1 mice, L1210 leukemia ip, survival T/C
Assay: NCI In Vivo Anticancer Drug Screen. Data for tumor model L1210 Leukemia (intraperitoneal) in CD2F1 (CDF1) mice
Conditions: endpoint: mean survival time, higher = longer survival
Outline: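 Implant tumor; dose compound or vehicle; measure endpoint in both groups; report treated divided by control.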

[1] = dose: 100.0 mg/kg/injection, schedule: Q01DX009 (ip), vehicle: saline with Tween-80
[2] = dose: 100.0 mg/kg/injection, schedule: Q04DX003 (ip), vehicle: saline with Tween-80
[3] = dose: 200.0 mg/kg/injection, schedule: Q04DX003 (ip), vehicle: saline with Tween-80
[4] = dose: 200.0 mg/kg/injection, schedule: Q01DX009 (ip), vehicle: saline with Tween-80
[5] = dose: 400.0 mg/kg/injection, schedule: Q01DX009 (ip), vehicle: saline with Tween-80
[6] = dose: 400.0 mg/kg/injection, schedule: Q04DX003 (ip), vehicle: saline with Tween-80

Measured: T/C

O=C(Nc1ccc(Cl)c(Cl)c1)Nc1c(Oc2ccc(Cl)c(Cl)c2)ccc(Cl)c1S(=O)(=O)O
inactive: dose: 3.12 mg/kg/injection, schedule: Q01DX009 (ip), vehicle: saline with Tween-80 109 % of control | dose: 6.25 mg/kg/injection, schedule: Q01DX009 (ip), vehicle: saline with Tween-80 109 % of control | dose: 12.5 mg/kg/injection, schedule: Q01DX009 (ip), vehicle: saline with Tween-80 110 % of control | dose: 25.0 mg/kg/injection, schedule: Q01DX009 (ip), vehicle: saline with Tween-80 113 % of control | dose: 50.0 mg/kg/injection, schedule: Q01DX009 (ip), vehicle: saline with Tween-80 104 % of control | [1] 113 % of control | [2] 108 % of control | [3] 101 % of control

CCOC(=O)CC/C=C/Cc1c(OC)c(C)c2c(c1OC(=O)NCc1ccc(N(CC)CC)cc1)C(=O)OC2
inactive: dose: 100.0 mg/kg/injection, schedule: Q04DX002 (ip), vehicle: saline with Tween-80 112 % of control

CCCOC(=O)OCCC
inactive: dose: 25.0 mg/kg/injection, schedule: Q04DX003 (ip), vehicle: saline with Tween-80 102 % of control | dose: 50.0 mg/kg/injection, schedule: Q04DX003 (ip), vehicle: saline with Tween-80 96 % of control | [1] 97 % of control | [2] 94 % of control | [4] 95 % of control | [3] 94 % of control | [5] 104 % of control | [6] 96 % of control

O=c1[nH][nH]c2ccccc12
inactive: [2] 98 % of control | [3] 94 % of control | [6] 98 % of control

NC(=O)c1ncn(C2OC(CO)C(O)C2O)n1 (stereo unspecified)
inactive: [1] 124 % of control | dose: 100.0 mg/kg/injection, schedule: Q04DX003 (ip), vehicle: saline 100 % of control | [4] 110 % of control | dose: 200.0 mg/kg/injection, schedule: Q04DX003 (ip), vehicle: saline 115 % of control | [5] 93 % of control | dose: 400.0 mg/kg/injection, schedule: Q04DX003 (ip), vehicle: saline 110 % of control
